The supplement of paper PMC4862054

system: MDA-MB-231; assay: normalised response (% of control), CellTiter-Glo; higher = more viable cells (100 = DMSO, 0 = benzethonium chloride kill control); details: incubation time: 72 h
How it was run: (§1)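 Plates were normalised with 0.1 % DMSO as 100 and a positive kill control as 0. Breast cancer cell lines in 20 µl suspension had been seeded into 384-well plates with compound at 5 concentrations in 10-fold steps over a compound-specific 10,000-fold range, incubated 72 h, and read for CellTox Green fluorescence (485/520 nm) followed by CellTiter-Glo luminescence. Each value is the normalised signal at a single concentration.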

First: CN(c1ccccc1CNc1nc(Nc2ccc3c(c2)CC(=O)N3)ncc1C(F)(F)F)S(C)(=O)=O (1000 nM)
Second: CS(=O)(=O)CCNCc1ccc(-c2ccc3ncnc(Nc4ccc(OCc5cccc(F)c5)c(Cl)c4)c3c2)o1 [Lapatinib] (100 nM)
The normalised response of the first is lower: 76.4% for the first, 108% for the second.

Going from FC(F)c1nc2ccccc2n1-c1nc(N2CCOCC2)nc(N2CCOCC2)n1 [ZSTK474] (1000 nM) to COC(=O)C[C@](O)(CCCC(C)(C)O)C(=O)O[C@@H]1C(OC)=C[C@]23CCCN2CCc2cc4c(cc2[C@H]13)OCO4 [Omacetaxine] (1000 nM), the normalised response falls from 61.6% to 9.47%.

C[C@@H]1CCN(C(=O)CC#N)C[C@@H]1N(C)c1ncnc2[nH]ccc12 [Tofacitinib] (500 nM) gave a normalised response of 107%.

system: HDQ-P1; assay: as above; details: incubation time: 72 h
How it was run: as §1

Compared with Cc1cc(C(C)Nc2ccccc2)c2nc(N3CCOCC3)cc(=O)n2c1 (stereo unspecified) [TGX-221] (1000 nM), FC(F)c1nc2ccccc2n1-c1nc(N2CCOCC2)nc(N2CCOCC2)n1 [ZSTK474] (1000 nM) is lower in normalised response: 88% for the first, 51.9% for the second.

Going from CCCC(CCC)C(=O)O [Valproic acid] (100000 nM) to COC(=O)C[C@](O)(CCCC(C)(C)O)C(=O)O[C@@H]1C(OC)=C[C@]23CCCN2CCc2cc4c(cc2[C@H]13)OCO4 [Omacetaxine] (1000 nM), the normalised response falls from 101% to 23.1%.

Going from COc1cc(Nc2ncc(F)c(Nc3ccc4c(n3)NC(=O)C(C)(C)O4)n2)cc(OC)c1OC [Tamatinib] (1000 nM) to CN(c1ccccc1CNc1nc(Nc2ccc3c(c2)CC(=O)N3)ncc1C(F)(F)F)S(C)(=O)=O (1000 nM), the normalised response falls from 98.4% to 84.5%.

First: Nc1nccc(-c2c(-c3ccc(F)cc3)ncn2C2CCCCC2)n1 (1000 nM)
Second: CS(=O)(=O)CCNCc1ccc(-c2ccc3ncnc(Nc4ccc(OCc5cccc(F)c5)c(Cl)c4)c3c2)o1 [Lapatinib] (100 nM)
The normalised response of the first is higher: 106% for the first, 83.9% for the second.

With C[C@@H]1CCN(C(=O)CC#N)C[C@@H]1N(C)c1ncnc2[nH]ccc12 [Tofacitinib] (500 nM) the normalised response was 104%.

system: HCC1937; assay: as above; details: incubation time: 72 h
How it was run: as §1

Compared with Cc1cc(C(C)Nc2ccccc2)c2nc(N3CCOCC3)cc(=O)n2c1 (stereo unspecified) [TGX-221] (1000 nM), FC(F)c1nc2ccccc2n1-c1nc(N2CCOCC2)nc(N2CCOCC2)n1 [ZSTK474] (1000 nM) is lower in normalised response: 86.9% for the first, 69.7% for the second.

Going from CCCC(CCC)C(=O)O [Valproic acid] (100000 nM) to COC(=O)C[C@](O)(CCCC(C)(C)O)C(=O)O[C@@H]1C(OC)=C[C@]23CCCN2CCc2cc4c(cc2[C@H]13)OCO4 [Omacetaxine] (1000 nM), the normalised response falls from 103% to 25.8%.

First: COc1cc(Nc2ncc(F)c(Nc3ccc4c(n3)NC(=O)C(C)(C)O4)n2)cc(OC)c1OC [Tamatinib] (1000 nM)
Second: CN(c1ccccc1CNc1nc(Nc2ccc3c(c2)CC(=O)N3)ncc1C(F)(F)F)S(C)(=O)=O (1000 nM)
The normalised response of the first is higher: 102% for the first, 94.5% for the second.

Compared with Nc1nccc(-c2c(-c3ccc(F)cc3)ncn2C2CCCCC2)n1 (1000 nM), CS(=O)(=O)CCNCc1ccc(-c2ccc3ncnc(Nc4ccc(OCc5cccc(F)c5)c(Cl)c4)c3c2)o1 [Lapatinib] (100 nM) is lower in normalised response: 97.3% for the first, 94.6% for the second.

For C[C@@H]1CCN(C(=O)CC#N)C[C@@H]1N(C)c1ncnc2[nH]ccc12 [Tofacitinib] (500 nM), the normalised response was 100%.

system: MDA-MB-453; assay: as above; details: incubation time: 72 h
How it was run: as §1

Going from Cc1cc(C(C)Nc2ccccc2)c2nc(N3CCOCC3)cc(=O)n2c1 (stereo unspecified) [TGX-221] (1000 nM) to FC(F)c1nc2ccccc2n1-c1nc(N2CCOCC2)nc(N2CCOCC2)n1 [ZSTK474] (1000 nM), the normalised response falls from 97.2% to 40.4%.

Compared with CCCC(CCC)C(=O)O [Valproic acid] (100000 nM), COC(=O)C[C@](O)(CCCC(C)(C)O)C(=O)O[C@@H]1C(OC)=C[C@]23CCCN2CCc2cc4c(cc2[C@H]13)OCO4 [Omacetaxine] (1000 nM) is lower in normalised response: 91.1% for the first, 48.8% for the second.

First: COc1cc(Nc2ncc(F)c(Nc3ccc4c(n3)NC(=O)C(C)(C)O4)n2)cc(OC)c1OC [Tamatinib] (1000 nM)
Second: CN(c1ccccc1CNc1nc(Nc2ccc3c(c2)CC(=O)N3)ncc1C(F)(F)F)S(C)(=O)=O (1000 nM)
The normalised response of the first is lower: 105% for the first, 128% for the second.

Going from Nc1nccc(-c2c(-c3ccc(F)cc3)ncn2C2CCCCC2)n1 (1000 nM) to CS(=O)(=O)CCNCc1ccc(-c2ccc3ncnc(Nc4ccc(OCc5cccc(F)c5)c(Cl)c4)c3c2)o1 [Lapatinib] (100 nM), the normalised response falls from 96.6% to 92.2%.

In the case of C[C@@H]1CCN(C(=O)CC#N)C[C@@H]1N(C)c1ncnc2[nH]ccc12 [Tofacitinib] (500 nM), the normalised response was 94.5%.

system: CAL-148; assay: as above; details: incubation time: 72 h
How it was run: as §1

Going from Cc1cc(C(C)Nc2ccccc2)c2nc(N3CCOCC3)cc(=O)n2c1 (stereo unspecified) [TGX-221] (1000 nM) to FC(F)c1nc2ccccc2n1-c1nc(N2CCOCC2)nc(N2CCOCC2)n1 [ZSTK474] (1000 nM), the normalised response falls from 98.1% to 69.2%.

First: CCCC(CCC)C(=O)O [Valproic acid] (100000 nM)
Second: COC(=O)C[C@](O)(CCCC(C)(C)O)C(=O)O[C@@H]1C(OC)=C[C@]23CCCN2CCc2cc4c(cc2[C@H]13)OCO4 [Omacetaxine] (1000 nM)
The normalised response of the first is higher: 91.4% for the first, 32% for the second.

Going from COc1cc(Nc2ncc(F)c(Nc3ccc4c(n3)NC(=O)C(C)(C)O4)n2)cc(OC)c1OC [Tamatinib] (1000 nM) to CN(c1ccccc1CNc1nc(Nc2ccc3c(c2)CC(=O)N3)ncc1C(F)(F)F)S(C)(=O)=O (1000 nM), the normalised response falls from 95.6% to 91.1%.

First: Nc1nccc(-c2c(-c3ccc(F)cc3)ncn2C2CCCCC2)n1 (1000 nM)
Second: CS(=O)(=O)CCNCc1ccc(-c2ccc3ncnc(Nc4ccc(OCc5cccc(F)c5)c(Cl)c4)c3c2)o1 [Lapatinib] (100 nM)
The normalised response of the first is lower: 97.5% for the first, 98.3% for the second.

Molecule C[C@@H]1CCN(C(=O)CC#N)C[C@@H]1N(C)c1ncnc2[nH]ccc12 [Tofacitinib] (500 nM) has a normalised response of 109%.
